Assay results from a compilation of properties of binary mixtures (doi:10.1016/j.molliq.2016.09.077).

Assay: xn = mol fraction of the nth substance listed
Settings: 100 kPa

CC[n+]1ccn(C)c1.O=S(=O)([N-]S(=O)(=O)C(F)(F)F)C(F)(F)F + CO
Settings	speed of sound [m/s]	viscosity [mPa·s]
298.15 K, x2 = 0	1240.2	32.49
298.15 K, x2 = 0.0938	1236.3	26.33
298.15 K, x2 = 0.1965	1231.5	20.39
298.15 K, x2 = 0.2889	1225.3	15.83
298.15 K, x2 = 0.4005	1217.3	11.82
298.15 K, x2 = 0.5088	1207.8	8.77
298.15 K, x2 = 0.6909	1177.9	4.64
298.15 K, x2 = 0.7961	1159.9	2.86
298.15 K, x2 = 0.8978	1132.9	1.55
303.15 K, x2 = 0	1229.3	27.68
303.15 K, x2 = 0.0938	1225.2	22.39
303.15 K, x2 = 0.1965	1220.1	17.79
303.15 K, x2 = 0.2889	1214.2	13.73
303.15 K, x2 = 0.4005	1206.3	10.47
303.15 K, x2 = 0.5088	1196.7	7.7
303.15 K, x2 = 0.5988	1183.4	5.82
303.15 K, x2 = 0.6909	1166.9	4.25
303.15 K, x2 = 0.7961	1147.4	2.61
303.15 K, x2 = 0.8978	1120.1	1.43
308.15 K, x2 = 0	1218.5	23.29
308.15 K, x2 = 0.0938	1214.6	19.27
308.15 K, x2 = 0.1965	1208.9	15.16
308.15 K, x2 = 0.2889	1203.2	12.01
308.15 K, x2 = 0.5088	1185.5	6.82
308.15 K, x2 = 0.5988	1172.4	5.22
308.15 K, x2 = 0.6909	1154.9	3.84
308.15 K, x2 = 0.7961	1135.5	2.37
313.15 K, x2 = 0	1207.9	20.16
313.15 K, x2 = 0.0938	1203.9	16.71
313.15 K, x2 = 0.1965	1197.9	13.25
313.15 K, x2 = 0.2889	1192.3	10.57
313.15 K, x2 = 0.5988	1161.2	4.65
313.15 K, x2 = 0.7961	1122.7	2.16
313.15 K, x2 = 0.8978	1094.6	1.22
318.15 K, x2 = 0	1197.3	17.48
318.15 K, x2 = 0.0938	1193.3	14.63
318.15 K, x2 = 0.2889	1181.6	9.38
318.15 K, x2 = 0.4005	1173.4	7.26
318.15 K, x2 = 0.5088	1163.5	5.47
318.15 K, x2 = 0.5988	1150.2	4.22
318.15 K, x2 = 0.6909	1131.2	3.13
318.15 K, x2 = 0.7961	1110.4	1.98
318.15 K, x2 = 0.8978	1082	1.13
323.15 K, x2 = 0	1187	15.34
323.15 K, x2 = 0.0938	1182.8	12.94
323.15 K, x2 = 0.1965	1176.2	10.42
323.15 K, x2 = 0.2889	1170.9	8.38
323.15 K, x2 = 0.4005	1162.8	6.56
323.15 K, x2 = 0.5088	1152.6	4.94
323.15 K, x2 = 0.5988	1139.3	3.86
323.15 K, x2 = 0.6909	1119.6	2.87
323.15 K, x2 = 0.8978	1069.4	1.05

CC[n+]1ccn(C)c1.O=S(=O)([N-]S(=O)(=O)C(F)(F)F)C(F)(F)F + CCOC(C)=O
Settings	speed of sound [m/s]	viscosity [mPa·s]
298.15 K, x2 = 0	1240.2	32.49
298.15 K, x2 = 0.0986	1232.6	25
298.15 K, x2 = 0.1858	1225.5	20.15
298.15 K, x2 = 0.2977	1215.3	14.83
298.15 K, x2 = 0.3962	1203.4	10.88
298.15 K, x2 = 0.5051	1189.2	7.63
298.15 K, x2 = 0.5961	1180.3	5.44
298.15 K, x2 = 0.6909	1171.1	3.77
298.15 K, x2 = 0.7974	1158.2	2.24
298.15 K, x2 = 0.8979	1147.7	0.93
303.15 K, x2 = 0	1229.3	27.68
303.15 K, x2 = 0.0986	1221.4	21.28
303.15 K, x2 = 0.1858	1213.9	17.32
303.15 K, x2 = 0.5051	1175.9	6.47
303.15 K, x2 = 0.6909	1155.8	3.31
308.15 K, x2 = 0.0986	1210.4	18.31
308.15 K, x2 = 0.1858	1202.6	14.96
308.15 K, x2 = 0.3962	1178.5	8.3
308.15 K, x2 = 0.5051	1162.7	5.78
308.15 K, x2 = 0.5961	1151.7	4.15
308.15 K, x2 = 0.6909	1139.5	2.78
308.15 K, x2 = 0.7974	1123.4	1.63
308.15 K, x2 = 0.8979	1109	0.83
313.15 K, x2 = 0	1207.9	20.16
313.15 K, x2 = 0.0986	1199.5	15.97
313.15 K, x2 = 0.1858	1191.4	13.01
313.15 K, x2 = 0.2977	1179.8	9.91
313.15 K, x2 = 0.5961	1137.9	3.71
313.15 K, x2 = 0.6909	1124.4	2.48
313.15 K, x2 = 0.7974	1106.4	1.47
313.15 K, x2 = 0.8979	1089.8	0.8
318.15 K, x2 = 0	1197.3	17.48
318.15 K, x2 = 0.0986	1188.6	14
318.15 K, x2 = 0.2977	1168.3	8.8
318.15 K, x2 = 0.5961	1123.8	3.27
318.15 K, x2 = 0.6909	1109.4	2.3
318.15 K, x2 = 0.7974	1089.2	1.29
323.15 K, x2 = 0	1187	15.34
323.15 K, x2 = 0.0986	1178.9	12.36
323.15 K, x2 = 0.1858	1169.7	10.19
323.15 K, x2 = 0.2977	1156.8	7.87
323.15 K, x2 = 0.3962	1142.5	5.82
323.15 K, x2 = 0.5051	1124	3.9
323.15 K, x2 = 0.5961	1110	2.94
323.15 K, x2 = 0.7974	1071.9	1.16
323.15 K, x2 = 0.8979	1051.6	0.7

CCOC(C)=O + CC[n+]1ccn(C)c1.O=S(=O)([N-]S(=O)(=O)C(F)(F)F)C(F)(F)F
x1 = 1
Settings	speed of sound [m/s]	viscosity [mPa·s]
298.15 K	1140.8	0.42
308.15 K	1096	0.38
313.15 K	1073.7	0.36
318.15 K	1051.7	0.35
323.15 K	1029.5	0.33

CO + CC[n+]1ccn(C)c1.O=S(=O)([N-]S(=O)(=O)C(F)(F)F)C(F)(F)F
x1 = 1
Settings	speed of sound [m/s]	viscosity [mPa·s]
303.15 K	1086.9	0.51
313.15 K	1054.5	0.45
323.15 K	1022.5	0.41
